For one experiment, the system named is Rattus norvegicus. The experiment is described as follows: Compound was tested in vivo for gastric antisecretory activity after 5 hr of pylorus ligation of SD rat. The class given is functional. To be noted: Stomach.
Experiment [1] addresses Potassium-transporting ATPase (Oryctolagus cuniculus). In words: Compound was tested in vitro for H+/K+ ATPase activity in rabbit stomach preparations.

pIC50: −log10 of the molar value.

One may read the ED50 as the dose that gives a 50% effect, or the effect in half of the subjects. Low values mean greater potency, high ones weaker potency. A word on the pIC50: it is the IC50 on a negative log10 scale, so that one unit is a factor of ten.

For `CCc1cn(-c2ccc(O)cc2C)c2c1cnc1c(OC)cccc12`, in the experiment with Rattus norvegicus, it took a dose of 59 mg/kg to reach the 50% effect level (ED50). Further, the negative-log IC50 (pIC50) in experiment [1] is 5.32.

`COc1cccc2c1ncc1c(CO)cn(-c3ccccc3C)c12` gave a pIC50 in experiment [1] of 4.00.

On to `COc1cccc2c1ncc1c(C)cn(-c3ccc(OC(C)=O)cc3C)c12`, for which the ED50 with Rattus norvegicus stood at 47 mg/kg. The compound further showed a negative logarithm of the IC50 (pIC50) in experiment [1] of 5.47.

As for `COc1cccc2c1ncc1c(CCO)cn(-c3ccc(F)cc3C)c12`, the negative logarithm of the IC50 (pIC50) in experiment [1] is below 4.00.

In turn, `COc1cccc2c1ncc1c(C(C)C)cn(-c3ccccc3C)c12` had a 50% effective dose (ED50) in the experiment on Rattus norvegicus of 90 mg/kg. Also, in experiment [1], the negative logarithm of the IC50 (pIC50) was 4.77.

`CCc1cn(-c2ccc(F)cc2C)c2c1cnc1c(OC)cccc12` came in with an ED50 with Rattus norvegicus of 13 mg/kg. The compound further had a pIC50 in experiment [1] of 5.24.

For `Cc1ccccc1-n1cc(C)c2cnc3c(O)cccc3c21`, in the experiment on Rattus norvegicus, it took a dose of 58 mg/kg to reach the 50% effect level (ED50). Also, the pIC50 in experiment [1] was 5.32.

Take `CCCC(=O)c1cnc2c(OC)cccc2c1Nc1ccccc1C`: in the experiment with Rattus norvegicus, the ED50 stood at 20 mg/kg. This compound also gave a negative-log IC50 (pIC50) in experiment [1] of 4.74.

For the compound `Cc1ccccc1-n1cc(C)c2cnc3c(OC(F)(F)F)cccc3c21`, in experiment [1], the pIC50 was below 4.00.

For the compound `COc1cccc2c1ncc1c(C)cn(-c3ccc(F)cc3C)c12`, in the experiment on Rattus norvegicus, the ED50 was 10 mg/kg. The negative-log IC50 (pIC50) in experiment [1] was 4.85.

On to `COc1cccc2c1ncc1c(C)cn(-c3ccccc3C)c12`, for which the 50% effect level with Rattus norvegicus (ED50) was put at a dose of 13 mg/kg. The negative-log IC50 (pIC50) in experiment [1] was 5.09.

On to `COc1cccc2c1nc(C)c1c(C)cn(-c3ccccc3C)c12`, for which the pIC50 in experiment [1] is below 4.00.

In turn, `COc1cccc2c1ncc1c(CCO)cn(-c3ccccc3C)c12` had a pIC50 in experiment [1] of 4.10.

On to `COc1cccc2c1nc(C)c1c(C)cn(-c3ccc(F)cc3C)c12`, for which the pIC50 in experiment [1] was 4.14.

In the experiment on Rattus norvegicus, `COc1cccc2c1ncc1c(C(C)C)cn(-c3ccc(O)cc3C)c12` yielded an ED50 of 49 mg/kg. This compound also showed a negative logarithm of the IC50 (pIC50) in experiment [1] of 5.14.

`COc1cccc2c1ncc1c(CO)cn(-c3ccc(F)cc3C)c12` gave a pIC50 in experiment [1] below 4.00.

The compound `COc1ccc2[nH]c([S+]([O-])Cc3ncc(C)c(OC)c3C)nc2c1` (stereo unspecified) [OMEPRAZOLE] showed an ED50 with Rattus norvegicus of 3.2 mg/kg.

Values taken from ChEMBL document CHEMBL1131995, “Synthesis and pharmacological profile of 1-aryl-3-substituted pyrrolo[3,2-c]quinolines” (Bioorg Med Chem Lett, 1999).
